From patent US20170143661A1 (priority 2015, published 2017)

Key:
Design in all cases: species or system broiler birds
Conditions in all cases: in vivo
[1] = test system: Newcastle disease virus, NDV
[2] = test system: Newcastle disease virus, NDV; remark: listed apart in the source
[3] = test system: Newcastle disease virus, NDV; remark: listed apart in the source
[4] = test system: Newcastle disease virus, NDV; remark: listed apart in the source
Interferon-γ (IFN-γ) = test system: Interferon-γ (IFN-γ)
Interleukin-6 (IL-6) = test system: Interleukin-6 (IL-6)

CCC(=O)[O-].CCC(=O)[O-].CCC(=O)[O-].[Cr+3] [chromium propionate]
serum antibody titers (ELISA) [1]: enhanced significantly
serum antibody titers (HI) [2]: enhanced significantly
daily mortality percentages [3]: lower
mortality by day 15 post-challenge [3]: 100%
onset of mortality [3]: delayed
mean viral titer in different organs [4]: lower as compared to the control
serum Interferon-γ (IFN-γ) levels (Interferon-γ (IFN-γ)): Significantly higher
post-challenge responses (serum cytokine) (Interleukin-6 (IL-6)): increasing trend
serum Interleukin-6 (IL-6) levels (Interleukin-6 (IL-6)): Significantly higher
